Source: ChEMBL document CHEMBL3813628, “Molecular similarity guided optimization of novel Nrf2 activators with 1,2,4-oxadiazole core” (Bioorg Med Chem, 2016)
Calls of active or inactive are those of the source. The rule behind the calls is not given here.

Key:
[1] = target: T1, Nuclear factor erythroid 2-related factor 2 (Homo sapiens) (UniProt Q16236); experiment: Activation of Nrf2 in human HepG2 cells at 20 uM incubated for 12 hrs by ARE-driven luciferase reporter gene assay relative to control; assay type: cell-based
T1 sequence (whole entry): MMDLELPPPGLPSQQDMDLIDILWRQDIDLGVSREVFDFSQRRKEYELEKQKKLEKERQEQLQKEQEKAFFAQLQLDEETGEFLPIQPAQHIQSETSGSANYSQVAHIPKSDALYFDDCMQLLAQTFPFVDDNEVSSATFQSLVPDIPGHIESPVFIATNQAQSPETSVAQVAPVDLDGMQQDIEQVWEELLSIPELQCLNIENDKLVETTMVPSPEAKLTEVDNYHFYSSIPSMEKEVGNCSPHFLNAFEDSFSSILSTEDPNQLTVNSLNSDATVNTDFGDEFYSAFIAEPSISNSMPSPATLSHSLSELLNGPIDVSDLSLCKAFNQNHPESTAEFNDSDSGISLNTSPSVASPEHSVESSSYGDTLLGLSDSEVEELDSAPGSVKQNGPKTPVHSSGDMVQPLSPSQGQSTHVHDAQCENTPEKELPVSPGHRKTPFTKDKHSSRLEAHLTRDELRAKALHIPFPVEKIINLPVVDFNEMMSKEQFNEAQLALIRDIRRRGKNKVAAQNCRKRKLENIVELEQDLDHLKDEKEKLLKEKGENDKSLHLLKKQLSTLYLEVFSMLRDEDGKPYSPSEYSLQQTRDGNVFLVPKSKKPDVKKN

[2] = target: T1, Nuclear factor erythroid 2-related factor 2 (Homo sapiens); experiment: Activation of Nrf2 in human HepG2 cells at 5 uM incubated for 12 hrs by ARE-driven luciferase reporter gene assay relative to control; assay type: cell-based
[3] = target: T1, Nuclear factor erythroid 2-related factor 2 (Homo sapiens); experiment: Activation of Nrf2 in human HepG2 cells at 2 uM incubated for 12 hrs by ARE-driven luciferase reporter gene assay relative to control; assay type: cell-based
[4] = (§1) Cytoprotective activity against H2O2-induced cytotoxicity in human L02 cells assessed as cell viability pretreated at 20 uM for 24 hrs followed by H2O2 challenge for 12 hrs by MTT assay (reference value: 50%); assay type: functional; conditions: read-out: Activity
[5] = target: T1, Nuclear factor erythroid 2-related factor 2 (Homo sapiens); experiment: Activation of Nrf2 expression in human HCT116 cells after 8 hrs by western blot analysis; assay type: cell-based; conditions: HCT-116
[6] = target: T1, Nuclear factor erythroid 2-related factor 2 (Homo sapiens); experiment: Activation of Nrf2 in human HCT116 cells assessed as upregulation of gamma-GCS after 8 hrs by western blot analysis; assay type: cell-based; conditions: HCT-116
[7] = target: T1, Nuclear factor erythroid 2-related factor 2 (Homo sapiens); experiment: Activation of Nrf2 in human HCT116 cells assessed as upregulation of HO-1 after 8 hrs by western blot analysis; assay type: cell-based; conditions: HCT-116
[8] = target: T1, Nuclear factor erythroid 2-related factor 2 (Homo sapiens); experiment: Activation of Nrf2 in human HepG2 cells at 40 uM incubated for 12 hrs by ARE-driven luciferase reporter gene assay relative to control; assay type: cell-based
[9] = Cytotoxicity against human HCT116 cells assessed as cell viability after 24 hrs by MTT assay; assay type: cell-based; conditions: hct-116, 24 h
[10] = target: T2, Nuclear factor erythroid 2-related factor 2 (Rattus norvegicus) (UniProt O54968); experiment: Induction of Nrf2 translocation into nucleus in rat PC12 cells after 12 hrs by DAPI staining-based laser scanning confocal microscopic analysis; assay type: cell-based; conditions: PC-12
T2 sequence (whole entry): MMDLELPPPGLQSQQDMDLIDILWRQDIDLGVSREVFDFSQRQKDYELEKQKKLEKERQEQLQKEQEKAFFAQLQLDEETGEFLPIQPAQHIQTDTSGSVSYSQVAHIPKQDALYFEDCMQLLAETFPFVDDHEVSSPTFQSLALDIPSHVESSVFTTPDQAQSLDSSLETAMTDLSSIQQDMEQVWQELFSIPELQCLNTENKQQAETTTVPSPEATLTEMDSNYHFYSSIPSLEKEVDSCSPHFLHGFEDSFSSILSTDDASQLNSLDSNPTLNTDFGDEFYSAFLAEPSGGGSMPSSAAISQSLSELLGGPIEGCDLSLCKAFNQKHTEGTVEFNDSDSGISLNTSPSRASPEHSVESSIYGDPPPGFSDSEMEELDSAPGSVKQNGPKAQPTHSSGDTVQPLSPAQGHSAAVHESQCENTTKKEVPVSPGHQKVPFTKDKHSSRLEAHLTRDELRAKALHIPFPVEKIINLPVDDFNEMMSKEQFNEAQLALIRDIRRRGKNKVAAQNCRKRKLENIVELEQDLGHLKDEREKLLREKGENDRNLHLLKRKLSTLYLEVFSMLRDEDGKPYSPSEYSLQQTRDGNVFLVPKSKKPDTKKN

[11] = target: T1, Nuclear factor erythroid 2-related factor 2 (Homo sapiens); experiment: Induction of Nrf2 translocation from cytoplasm to nucleus in human HCT116 cells at 20 uM by western blot analysis; assay type: cell-based; conditions: HCT-116, TDE = time-dependent effect
[12] = Cytotoxicity against rat PC12 cells assessed as cell viability at 160 uM after 24 hrs by MTT assay relative to control; assay type: cell-based, PC-12; conditions: read-out: Activity
[13] = target: T1, Nuclear factor erythroid 2-related factor 2 (Homo sapiens); experiment: Induction of Nrf2 translocation into nucleus in human NCM460 cells after 12 hrs by DAPI staining-based laser scanning confocal microscopic analysis; assay type: cell-based
[14] = Cytotoxicity against human L02 cells assessed as cell viability at 160 uM after 24 hrs by MTT assay relative to control; assay type: cell-based; conditions: read-out: Activity
[15] = target: T1, Nuclear factor erythroid 2-related factor 2 (Homo sapiens); experiment: Induction of Nrf2 translocation into nucleus in human L02 cells after 12 hrs by DAPI staining-based laser scanning confocal microscopic analysis; assay type: cell-based
[16] = target: T1, Nuclear factor erythroid 2-related factor 2 (Homo sapiens); experiment: Activation of Nrf2 in human HepG2 cells at 80 uM incubated for 12 hrs by ARE-driven luciferase reporter gene assay relative to control; assay type: cell-based
[17] = Cytotoxicity against human NCM460 cells assessed as cell viability at low to medium concentration after 24 hrs by MTT assay relative to control; assay type: cell-based; conditions: ncm460, 24 h
[18] = Cytotoxicity against human L02 cells assessed as cell viability at low to medium concentration after 24 hrs by MTT assay relative to control; assay type: cell-based; conditions: l02, 24 h
[19] = Cytotoxicity against rat PC12 cells assessed as cell viability at low to medium concentration after 24 hrs by MTT assay relative to control; assay type: cell-based; conditions: pc-12, 24 h
[20] = Cytotoxicity against human NCM460 cells assessed as cell viability at 160 uM after 24 hrs by MTT assay relative to control; assay type: cell-based; conditions: read-out: Activity
[21] = target: T1, Nuclear factor erythroid 2-related factor 2 (Homo sapiens); experiment: Activation of Nrf2 in human HepG2 cells at 0.2 uM incubated for 12 hrs by ARE-driven luciferase reporter gene assay relative to control; assay type: cell-based
[22] = (§2) Cytoprotective activity against H2O2-induced cytotoxicity in rat PC12 cells assessed as cell viability pretreated at 20 uM for 24 hrs followed by H2O2 challenge for 12 hrs by MTT assay (reference value: 50%); assay type: functional; conditions: PC-12, read-out: Activity
[23] = Cytotoxicity against human L02 cells assessed as cell viability at 20 uM after 24 hrs by MTT assay relative to control; assay type: cell-based; conditions: l02, 24 h
[24] = Cytotoxicity against rat PC12 cells assessed as cell viability at 20 uM after 24 hrs by MTT assay relative to control; assay type: cell-based; conditions: pc-12, 24 h
[25] = target: T1, Nuclear factor erythroid 2-related factor 2 (Homo sapiens); experiment: Activation of Nrf2 in human HepG2 cells at 0.02 uM incubated for 12 hrs by ARE-driven luciferase reporter gene assay relative to control; assay type: cell-based
[26] = (§3) Cytoprotective activity against H2O2-induced cytotoxicity in human NCM460 cells assessed as cell viability pretreated at 20 uM for 24 hrs followed by H2O2 challenge for 12 hrs by MTT assay (reference value: 50%); assay type: functional; conditions: read-out: Activity
[27] = Cytotoxicity against human NCM460 cells assessed as cell viability at 20 uM after 24 hrs by MTT assay relative to control; assay type: cell-based; conditions: ncm460, 24 h
[28] = target: T1, Nuclear factor erythroid 2-related factor 2 (Homo sapiens); experiment: Activation of Nrf2 in human HepG2 cells at 160 uM incubated for 12 hrs by ARE-driven luciferase reporter gene assay relative to control; assay type: cell-based
[29] = target: T1, Nuclear factor erythroid 2-related factor 2 (Homo sapiens); experiment: Activation of Nrf2 in human HepG2 cells incubated for 12 hrs by ARE-driven luciferase reporter gene assay relative to control; assay type: cell-based
[30] = target: T1, Nuclear factor erythroid 2-related factor 2 (Homo sapiens); experiment: Activation of Nrf2 in human HCT116 cells assessed as upregulation of NQO1 after 8 hrs by western blot analysis; assay type: cell-based; conditions: HCT-116
L02 = experiment: as §1; assay type: functional
PC-12 = experiment: as §2; assay type: functional
NCM460 = experiment: as §3; assay type: functional

Row | SMILES | fold change (FC) [1] | fold change (FC) [2] | fold change (FC) [3] | fold change (FC) [8] | fold change (FC) [16] | fold change (FC) [21] | fold change (FC) [25] | fold change (FC) [28] | Activity [17] | Activity [18] | Activity [19] | also measured
1 | Cc1nc2cc(-c3noc(-c4cnccn4)n3)ccc2o1 | 9.57 | 6.85 | 4.67 | 15.5 | 17.1 | 4.98 | 3.42 | 15.3 | Non-toxic | Non-toxic | Non-toxic | viability at 20 µM [4]: 85%; Activity [5]: Dose-dependent effect; Activity [6]: Dose-dependent effect; Activity [7]: Dose-dependent effect; Activity [9]: Non-toxic; Activity [10]: Dose-dependent effect; Activity [11]: tde; viability at 24 h, 160 µM [12]: 80%; Activity [13]: Dose-dependent effect; viability at 24 h, 160 µM [14]: 80%; Activity [15]: Dose-dependent effect; viability at 24 h, 160 µM [20]: 80%; viability at 20 µM [22]: 80%; Activity [23]: Non-toxic; Activity [24]: Non-toxic; viability at 20 µM [26]: 90%; Activity [27]: Non-toxic; Activity [29]: Dose-dependent effect; Activity [30]: Dose-dependent effect
2 | CC(C)(C)c1cc(O)ccc1O [E319] |  |  | 1.24 | 2.14 | 5.2 | 1.25 | 1.18 | 8.46 | Non-toxic | Non-toxic | Non-toxic | Activity (L02): Active; Activity (PC-12): Active; Activity (NCM460): Active
3 | Cc1nc2cc(-c3noc(Cc4ccc(F)cc4)n3)ccc2o1 | 3.2 | 1.73 |  |  |  |  |  |  |  |  |  | 
4 | CCc1cc(O)nc(SCc2nc(-c3ccc(Cl)c(F)c3)no2)n1 | 4.28 | 1.38 |  |  |  |  |  |  |  |  |  | 
5 | CN(C)C=O [DIMETHYLFORMAMIDE] | 1.65 |  | 1.1 | 2.97 |  | 1 | 0.82 |  | Non-toxic | Non-toxic | Non-toxic | Activity (L02): Active; Activity (PC-12): Active; Activity (NCM460): Active
6 | COc1ccc(Cl)cc1-c1nc(-c2ccc3oc(C)nc3c2)no1 | 3.72 | 3.62 |  |  |  |  |  |  |  |  |  | 

Now from value to compound, other results behind:

Row | fold change (FC) [1] | fold change (FC) [2] | fold change (FC) [3] | fold change (FC) [8] | fold change (FC) [16] | fold change (FC) [21] | fold change (FC) [25] | fold change (FC) [28] | SMILES | Activity [17] | Activity [18] | Activity [19] | also measured
7 | 2.6 | 4.76 |  |  |  |  |  |  | Cc1nc2cc(-c3noc(-c4cccc(C#N)c4)n3)ccc2o1 |  |  |  | 
8 | 5.46 | 4.64 | 4.11 | 6.78 | 7.31 | 3.14 | 2.26 | 7.64 | Cc1nc2cc(-c3noc(/C=C/c4ccccc4)n3)ccc2o1 |  |  |  | 
9 | 4.52 | 2.36 |  |  |  |  |  |  | CCc1ccc(-c2nc(-c3ccc4oc(C)nc4c3)no2)cc1 |  |  |  | 
10 | 6.96 | 4.55 | 3.21 | 5.43 | 8.23 | 4.42 | 1.81 | 17.7 | c1ccc(-c2nc3cc(-c4noc(-c5ccc6[nH]cnc6c5)n4)ccc3o2)cc1 |  |  |  | 
